# From ChEMBL document CHEMBL1201861, “Genomics of Drug Sensitity in Cancer screening data, Wellcome Trust Sanger Institute”
# Tests used:
# Test in all cases: cells
# Settings in all cases: Homo sapiens
# RPMI-8226 = type: functional, cell-based
# Description: SANGER: Inhibition of human RPMI-8226 cell growth in a cell viability assay.
# HCE-4 = type: functional, cell-based;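 further: cell viability assay measuring inhibition of growth in the human HCE-4 cell line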
# Description: SANGER: Inhibition of human HCE-4 cell growth in a cell viability assay.
# SH-4 = type: functional, cell-based;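 further: growth inhibition of SH-4 cells, read out with a cell viability assay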
# Description: SANGER: Inhibition of human SH-4 cell growth in a cell viability assay.
# LXF-289 cell line = type: functional, cell-based
# Description: SANGER: Inhibition of human LXF-289 cell growth in a cell viability assay.
# KM-H2 = type: functional, cell-based;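 further: growth inhibition of KM-H2 cells, read out by a cell viability assay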
# Description: SANGER: Inhibition of human KM-H2 cell growth in a cell viability assay.
# NCI-H526 = type: functional, cell-based;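 further: growth inhibition of the human NCI-H526 cell line, measured by a cell viability assay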
# Description: SANGER: Inhibition of human NCI-H526 cell growth in a cell viability assay.
# MHH-NB-11 = type: functional, cell-based;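 further: growth inhibition of human MHH-NB-11 cells, read out by a cell viability assay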
# Description: SANGER: Inhibition of human MHH-NB-11 cell growth in a cell viability assay.
# LB771-HNC = type: functional, cell-based;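 further: growth inhibition of LB771-HNC human cells, read out with a cell viability assay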
# Description: SANGER: Inhibition of human LB771-HNC cell growth in a cell viability assay.
# MS-1 = type: functional, cell-based;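 further: growth inhibition of MS-1 cells, read out by cell viability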
# Description: SANGER: Inhibition of human MS-1 cell growth in a cell viability assay.
# COLO-829 = type: functional, cell-based
# Description: SANGER: Inhibition of human COLO-829 cell growth in a cell viability assay.
# EKVX = type: functional, cell-based;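 further: growth inhibition of human EKVX cells, read out with a cell viability assay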
# Description: SANGER: Inhibition of human EKVX cell growth in a cell viability assay.
# 697 = type: functional, cell-based
# Description: SANGER: Inhibition of human 697 cell growth in a cell viability assay.
# D-263MG = type: functional, cell-based
# Description: SANGER: Inhibition of human D-263MG cell growth in a cell viability assay.
# COLO-684 = type: functional, cell-based
# Description: SANGER: Inhibition of human COLO-684 cell growth in a cell viability assay.
# P30-OHK = type: functional, cell-based;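 further: growth inhibition of the P30-OHK cell line, read out with a cell viability assay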
# Description: SANGER: Inhibition of human P30-OHK cell growth in a cell viability assay.
# NOS-1 = type: functional, cell-based;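 further: growth inhibition of the human NOS-1 cell line, read out with a cell viability assay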
# Description: SANGER: Inhibition of human NOS-1 cell growth in a cell viability assay.
# NCI-H23 = type: functional, cell-based;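 further: cell viability assay measuring growth inhibition of NCI-H23 cells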
# Description: SANGER: Inhibition of human NCI-H23 cell growth in a cell viability assay.
# SW684 = type: functional, cell-based;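 further: growth inhibition of human SW684 cells, measured by a cell viability assay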
# Description: SANGER: Inhibition of human SW684 cell growth in a cell viability assay.
# NCI-H510A = type: functional, cell-based;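 further: growth inhibition of NCI-H510A cells, read out with a cell viability assay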
# Description: SANGER: Inhibition of human NCI-H510A cell growth in a cell viability assay.
# NB69 = type: functional, cell-based;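 further: growth inhibition of NB69 cells, determined by a cell viability assay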
# Description: SANGER: Inhibition of human NB69 cell growth in a cell viability assay.
# EW-18 = type: functional, cell-based;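 further: growth inhibition of EW-18 cells, read out by a cell viability assay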
# Description: SANGER: Inhibition of human EW-18 cell growth in a cell viability assay.
# NCI-H1838 = type: functional, cell-based;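 further: growth inhibition of NCI-H1838 cells, determined with a cell viability readout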
# Description: SANGER: Inhibition of human NCI-H1838 cell growth in a cell viability assay.
# Ramos-2G6-4C10 = type: functional, cell-based;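 further: growth inhibition of the cell line, measured by a cell viability read-out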
# Description: SANGER: Inhibition of human Ramos-2G6-4C10 cell growth in a cell viability assay.
# ES7 = type: functional, cell-based;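 further: growth inhibition of cultured human ES7 cells, read out as cell viability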
# Description: SANGER: Inhibition of human ES7 cell growth in a cell viability assay.
# NCI-H1092 = type: functional, cell-based;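 further: cell growth inhibition measured with a cell viability assay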
# Description: SANGER: Inhibition of human NCI-H1092 cell growth in a cell viability assay.
# MZ2-MEL = type: functional, cell-based;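 further: growth inhibition of MZ2-MEL cells read out with a cell viability assay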
# Description: SANGER: Inhibition of human MZ2-MEL cell growth in a cell viability assay.
# KLE = type: functional, cell-based;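 further: growth inhibition of human KLE cells, read out with a cell viability assay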
# Description: SANGER: Inhibition of human KLE cell growth in a cell viability assay.
# SK-MEL-2 = type: functional, cell-based;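 further: growth inhibition of human SK-MEL-2 cells measured with a cell viability assay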
# Description: SANGER: Inhibition of human SK-MEL-2 cell growth in a cell viability assay.
# NKM-1 = type: functional, cell-based;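 further: growth inhibition of NKM-1 cells, read out with a cell viability assay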
# Description: SANGER: Inhibition of human NKM-1 cell growth in a cell viability assay.
# SCH = type: functional, cell-based;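 further: growth inhibition of human SCH cells, read out in a cell viability assay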
# Description: SANGER: Inhibition of human SCH cell growth in a cell viability assay.
# BV-173 = type: functional, cell-based
# Description: SANGER: Inhibition of human BV-173 cell growth in a cell viability assay.
# IST-MEL1 = type: functional, cell-based;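 further: growth inhibition of the cell line, read out with a cell viability assay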
# Description: SANGER: Inhibition of human IST-MEL1 cell growth in a cell viability assay.
# MOLT-16 = type: functional, cell-based;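 further: growth inhibition of human MOLT-16 cells, read out with a cell viability assay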
# Description: SANGER: Inhibition of human MOLT-16 cell growth in a cell viability assay.
# KS-1 = type: functional, cell-based;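 further: growth inhibition of KS-1 cells, read out with a cell viability assay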
# Description: SANGER: Inhibition of human KS-1 cell growth in a cell viability assay.
# DJM-1 = type: functional, cell-based;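 further: growth inhibition of human DJM-1 cells, read out by a cell viability assay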
# Description: SANGER: Inhibition of human DJM-1 cell growth in a cell viability assay.
# HAL-01 = type: functional, cell-based;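 further: growth inhibition of human HAL-01 cells, read out with a cell viability assay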
# Description: SANGER: Inhibition of human HAL-01 cell growth in a cell viability assay.
# JVM-3 = type: functional, cell-based;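 further: growth inhibition of human JVM-3 cells, read out with a cell viability assay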
# Description: SANGER: Inhibition of human JVM-3 cell growth in a cell viability assay.
# K562 = type: functional, cell-based
# Description: SANGER: Inhibition of human K-562 cell growth in a cell viability assay.
# NCI-H1155 = type: functional, cell-based;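 further: cell growth inhibition measured by a viability assay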
# Description: SANGER: Inhibition of human NCI-H1155 cell growth in a cell viability assay.
# RCC10RGB = type: functional, cell-based;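 further: growth inhibition of human RCC10RGB cells, read out by a cell viability assay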
# Description: SANGER: Inhibition of human RCC10RGB cell growth in a cell viability assay.
# TE-1 = type: functional, cell-based;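 further: growth inhibition of the human TE-1 cell line, read out with a cell viability assay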
# Description: SANGER: Inhibition of human TE-1 cell growth in a cell viability assay.
# KP-N-YS = type: functional, cell-based;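 further: cell viability assay measuring inhibition of cell line growth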
# Description: SANGER: Inhibition of human KP-N-YS cell growth in a cell viability assay.
# 8-MG-BA = type: functional, cell-based;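 further: growth inhibition of 8-MG-BA cells, read out with a cell viability assay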
# Description: SANGER: Inhibition of human 8-MG-BA cell growth in a cell viability assay.
# IST-SL1 = type: functional, cell-based;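 further: growth inhibition of human IST-SL1 cells, read out with a cell viability assay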
# Description: SANGER: Inhibition of human IST-SL1 cell growth in a cell viability assay.
# GOTO = type: functional, cell-based;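 further: growth inhibition of GOTO cells, read out by a cell viability assay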
# Description: SANGER: Inhibition of human GOTO cell growth in a cell viability assay.
# BB65-RCC = type: functional, cell-based;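 further: growth inhibition of the cell line, measured with a cell viability assay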
# Description: SANGER: Inhibition of human BB65-RCC cell growth in a cell viability assay.
# PSN1 = type: functional, cell-based;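 further: suppression of growth of human PSN1 cells, read out by a cell viability assay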
# Description: SANGER: Inhibition of human PSN1 cell growth in a cell viability assay.
# U-87 MG = type: functional, cell-based, U-87MG ATCC;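 further: growth inhibition of the cells measured with a viability assay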
# Description: SANGER: Inhibition of human U-87-MG cell growth in a cell viability assay.
# TE-5 = type: functional, cell-based;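 further: inhibition of cell growth, read out by a cell viability assay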
# Description: SANGER: Inhibition of human TE-5 cell growth in a cell viability assay.
# MMAC-SF = type: functional, cell-based;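 further: growth inhibition of human MMAC-SF cells, read out with a cell viability assay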
# Description: SANGER: Inhibition of human MMAC-SF cell growth in a cell viability assay.
# ACN = type: functional, cell-based;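 further: growth inhibition of the human ACN cell line, read out via cell viability testing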
# Description: SANGER: Inhibition of human ACN cell growth in a cell viability assay.
# SK-NEP-1 = type: functional, cell-based;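 further: growth inhibition of human SK-NEP-1 cells, read out by a cell viability assay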
# Description: SANGER: Inhibition of human SK-NEP-1 cell growth in a cell viability assay.
# NH-12 = type: functional, cell-based;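 further: growth inhibition of NH-12 cells, read out with a cell viability assay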
# Description: SANGER: Inhibition of human NH-12 cell growth in a cell viability assay.
# SW872 = type: functional, cell-based;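 further: growth inhibition of SW872 cells, read out by a viability assay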
# Description: SANGER: Inhibition of human SW872 cell growth in a cell viability assay.
# SCC-15 = type: functional, cell-based;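 further: growth inhibition of SCC-15 cells, read out with a cell viability assay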
# Description: SANGER: Inhibition of human SCC-15 cell growth in a cell viability assay.
# NCI-H2126 = type: functional, cell-based;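 further: growth inhibition of the cancer cell line, determined with a cell viability readout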
# Description: SANGER: Inhibition of human NCI-H2126 cell growth in a cell viability assay.
# GCIY = type: functional, cell-based
# Description: SANGER: Inhibition of human GCIY cell growth in a cell viability assay.
# KG-1 = type: functional, cell-based
# Description: SANGER: Inhibition of human KG-1 cell growth in a cell viability assay.
# KU812 cell line = type: functional, cell-based
# Description: SANGER: Inhibition of human KU812 cell growth in a cell viability assay.
# HT = type: functional, cell-based
# Description: SANGER: Inhibition of human HT cell growth in a cell viability assay.
# LB831-BLC = type: functional, cell-based
# Description: SANGER: Inhibition of human LB831-BLC cell growth in a cell viability assay.
# NCI-H209 = type: functional, cell-based
# Description: SANGER: Inhibition of human NCI-H209 cell growth in a cell viability assay.
# BE-13 = type: functional, cell-based
# Description: SANGER: Inhibition of human BE-13 cell growth in a cell viability assay.
# NB6 = type: functional, cell-based
# Description: SANGER: Inhibition of human NB6 cell growth in a cell viability assay.
# SW982 = type: functional, cell-based
# Description: SANGER: Inhibition of human SW982 cell growth in a cell viability assay.
# LS-411N = type: functional, cell-based
structure (smiles),measurement,setting,value
CC[C@]1(O)C[C@@H]2CN(CCc3c([nH]c4ccccc34)[C@@](C(=O)OC)(c3cc4c(cc3OC)N(C)[C@H]3[C@@](O)(C(=O)OC)[C@H](OC(C)=O)[C@]5(CC)C=CCN6CC[C@]43[C@@H]65)C2)C1 [VINBLASTINE],IC50,RPMI-8226,0.00285 µM
same,IC50,HCE-4,0.0181 µM
same,IC50,SH-4,0.0435 µM
same,IC50,LXF-289 cell line,0.0103 µM
same,IC50,KM-H2,0.00534 µM
same,IC50,NCI-H526,0.00514 µM
same,IC50,MHH-NB-11,0.0389 µM
same,IC50,LB771-HNC,0.00857 µM
same,IC50,MS-1,0.0308 µM
same,IC50,COLO-829,0.0192 µM
same,IC50,EKVX,> 0.1 µM
same,IC50,697,0.00623 µM
same,IC50,D-263MG,0.00928 µM
same,IC50,COLO-684,0.00767 µM
same,IC50,P30-OHK,0.0111 µM
same,IC50,NOS-1,0.0409 µM
same,IC50,NCI-H23,0.00571 µM
same,IC50,SW684,> 0.1 µM
same,IC50,NCI-H510A,0.00275 µM
same,IC50,NB69,0.00573 µM
same,IC50,EW-18,> 0.1 µM
same,IC50,NCI-H1838,> 0.1 µM
same,IC50,Ramos-2G6-4C10,0.00155 µM
same,IC50,ES7,0.00575 µM
same,IC50,NCI-H1092,> 0.1 µM
same,IC50,MZ2-MEL,0.0603 µM
same,IC50,KLE,> 0.1 µM
same,IC50,SK-MEL-2,0.0533 µM
same,IC50,NKM-1,0.00127 µM
same,IC50,SCH,0.0297 µM
same,IC50,BV-173,0.0423 µM
same,IC50,IST-MEL1,0.00453 µM
same,IC50,MOLT-16,0.00243 µM
same,IC50,KS-1,0.00799 µM
same,IC50,DJM-1,> 0.1 µM
same,IC50,HAL-01,> 0.1 µM
same,IC50,JVM-3,0.0017 µM
same,IC50,K562,> 0.1 µM
same,IC50,NCI-H1155,0.0437 µM
same,IC50,RCC10RGB,> 0.1 µM
same,IC50,TE-1,0.0109 µM
same,IC50,KP-N-YS,0.0229 µM
same,IC50,8-MG-BA,0.00634 µM
same,IC50,IST-SL1,0.00119 µM
same,IC50,GOTO,0.00821 µM
same,IC50,BB65-RCC,0.0207 µM
same,IC50,PSN1,0.00125 µM
same,IC50,U-87 MG,0.03 µM
same,IC50,TE-5,0.00614 µM
same,IC50,MMAC-SF,0.0151 µM
same,IC50,ACN,0.0403 µM
same,IC50,SK-NEP-1,0.0015 µM
same,IC50,NH-12,0.0263 µM
same,IC50,SW872,> 0.1 µM
same,IC50,SCC-15,0.0231 µM
same,IC50,NCI-H2126,0.0259 µM
same,IC50,GCIY,0.0497 µM
same,IC50,KG-1,0.0184 µM
same,IC50,KU812 cell line,0.0168 µM
same,IC50,HT,0.0156 µM
same,IC50,LB831-BLC,0.0212 µM
same,IC50,NCI-H209,0.0131 µM
same,IC50,BE-13,0.00142 µM
same,IC50,NB6,0.08 µM
same,IC50,SW982,0.00892 µM
same,IC50,LS-411N,0.0664 µM
